Values quoted from earlier work, collected in US20210177743A1, “Self-Assembling Multi-Domain Peptide Based Hydrogels” (New Jersey Institute of Technology, priority 2018, published 2021).

Test system: hepatocytes with low LDL receptors due to PCSK9

Sequence: TVFTSWEEYLDWV [Pep2-8]
- LDL receptors on the cell surface: restore the receptors to the cell surface
